# How the values were obtained:
# [1] = biological target: T1, Muscarinic acetylcholine receptor M1 (Homo sapiens, UniProt P11229); experiment: Agonist activity at human muscarinic M1 receptor expressed in CHO cells assessed as effect on acetylcholine-induced intracellular calcium level by FLIPR assay; format: functional, cell-based
# T1 sequence (P11229 whole entry): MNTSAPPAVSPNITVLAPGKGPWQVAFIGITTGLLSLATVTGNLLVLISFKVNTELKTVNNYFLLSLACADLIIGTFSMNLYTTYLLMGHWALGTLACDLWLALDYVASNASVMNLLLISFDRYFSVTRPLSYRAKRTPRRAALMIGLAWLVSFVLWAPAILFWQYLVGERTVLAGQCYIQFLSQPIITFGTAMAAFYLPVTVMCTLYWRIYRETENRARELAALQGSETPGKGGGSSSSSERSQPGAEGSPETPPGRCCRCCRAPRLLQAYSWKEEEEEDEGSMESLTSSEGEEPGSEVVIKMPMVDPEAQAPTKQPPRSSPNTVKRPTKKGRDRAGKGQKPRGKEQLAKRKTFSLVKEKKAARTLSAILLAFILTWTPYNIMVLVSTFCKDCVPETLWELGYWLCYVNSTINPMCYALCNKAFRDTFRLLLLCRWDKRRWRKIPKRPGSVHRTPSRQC
# [2] = biological target: T2, Muscarinic acetylcholine receptor M1 (Homo sapiens) (UniProt P11229); experiment: Intrinsic activity at human muscarinic M1 receptor expressed in CHO cells assessed as effect on acetylcholine-induced intracellular calcium level by FLIPR assay relative to acetylcholine; format: functional, cell-based
# T2 sequence (whole entry): T1 sequence (P11229 whole entry)
# [3] = biological target: Muscarinic acetylcholine receptor M3 (Homo sapiens, UniProt P20309); experiment: Inhibition of human muscarinic M3 receptor expressed in CHO cells; format: cell-based
# Chain of Muscarinic acetylcholine receptor M3 (P20309 whole entry): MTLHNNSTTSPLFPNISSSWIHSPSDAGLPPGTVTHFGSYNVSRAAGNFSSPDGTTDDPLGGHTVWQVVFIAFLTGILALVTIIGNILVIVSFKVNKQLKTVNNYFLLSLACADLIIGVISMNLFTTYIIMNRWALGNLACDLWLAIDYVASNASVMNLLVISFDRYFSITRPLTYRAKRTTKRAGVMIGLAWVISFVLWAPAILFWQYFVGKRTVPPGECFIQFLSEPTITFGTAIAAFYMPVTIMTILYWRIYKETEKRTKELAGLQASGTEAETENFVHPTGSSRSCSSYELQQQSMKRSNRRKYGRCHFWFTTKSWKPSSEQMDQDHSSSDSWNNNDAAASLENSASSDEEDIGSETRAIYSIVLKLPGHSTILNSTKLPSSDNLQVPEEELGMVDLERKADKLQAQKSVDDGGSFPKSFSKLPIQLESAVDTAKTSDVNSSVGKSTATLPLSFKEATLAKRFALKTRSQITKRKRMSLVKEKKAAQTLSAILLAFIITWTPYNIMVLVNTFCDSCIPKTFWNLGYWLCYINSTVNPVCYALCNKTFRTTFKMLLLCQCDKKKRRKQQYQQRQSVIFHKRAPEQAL
EC50 [1],Intrinsic activity [2],IC50 [3],Compound
158 nM,72%,,CC1CNCC=C1CNC(=O)c1c(-c2cccc(Cl)c2)ccc(Cl)c1F (configuration not stated)
20 nM,92%,2510 nM,C[C@H]1CNCC[C@H]1CNC(=O)c1c(F)cccc1-c1cccc(Cl)c1 (relative stereo)
1000 nM,55%,12.6 nM,Clc1cccc(-c2ccccc2/C=C/CC2CCNCC2)c1
> 10000 nM,0%,,O=C(NCC1CCNCC1)c1sccc1-c1cccc(Cl)c1
> 10000 nM,18%,,O=C(NCC1CCNCC1)c1ncccc1-c1cccc(Cl)c1
> 10000 nM,14%,,O=C(NCC1CCNCC1)c1cccc(Cl)c1-c1cccc(Cl)c1
501 nM,65%,3980 nM,Fc1cccc(-c2cc(Cl)ccc2Cl)c1-c1nc(C2CCNCC2)no1
> 10000 nM,,,Fc1cccc(-c2cccc(Cl)c2)c1-c1noc(C2CCNCC2)n1
50.1 nM,7.8%,,CN(C(=O)Cc1ccccc1-c1cccc(Cl)c1)C1CCNCC1
> 10000 nM,0%,,Cn1cc(-c2cccc(Cl)c2)c(C(=O)NCC2CCNCC2)n1
> 10000 nM,,,CN(Cc1ccccc1-c1cccc(Cl)c1)C(=O)C1CCNCC1
> 10000 nM,,,Clc1cccc(-c2ccccc2CNCC2CCNCC2)c1
100 nM,79%,,O=C(NCC1CCNCC1)c1ccc(Cl)cc1-c1cccc(Cl)c1
> 10000 nM,0%,,O=C(NCC1CCNCC1)c1cccnc1-c1cccc(Cl)c1
> 10000 nM,,,CN(CC1CCNCC1)S(=O)(=O)c1ccccc1-c1cccc(Cl)c1
158 nM,74%,10000 nM,O=C(NCC1=C(F)CNCC1)c1c(-c2cccc(Cl)c2)ccc(Cl)c1F
> 10000 nM,,,O=C(CCC1CCNCC1)c1ccccc1-c1cccc(Cl)c1
> 10000 nM,,,Clc1cccc(-c2ccccc2OCCC2CCNCC2)c1
158 nM,68%,10000 nM,O=C(NC[C@H]1CCNC[C@H]1F)c1c(F)cccc1-c1cccc(Cl)c1
3160 nM,52%,,O=C(NCCC1CCNCC1)c1ccccc1-c1cccc(Cl)c1
39.8 nM,92%,10000 nM,CC[C@H]1CNCC[C@@H]1CNC(=O)c1c(F)cccc1-c1cccc(Cl)c1
50.1 nM,78%,,O=C(NCC1CCNCC1)c1cc(F)ccc1-c1cccc(Cl)c1
63.1 nM,71%,20 nM,O=S(=O)(CCC1CCNCC1)c1ccccc1-c1cccc(Cl)c1
398 nM,70%,,CC(=O)N(Cc1ccccc1-c1cccc(Cl)c1)CC1CCNCC1

EC50 [1],Intrinsic activity [2],IC50 [3],Compound
7940 nM,43%,,O=C(CC1CCNCC1)Nc1ccccc1-c1cccc(Cl)c1
31.6 nM,92%,1260 nM,O=C(NCC1CCNCC1)c1c(F)cccc1-c1cc(Cl)ccc1Cl
5010 nM,45%,,O=C(NCC1CCNCC1)c1cccc(F)c1-c1cccc(Cl)c1
501 nM,81%,2000 nM,O=C(NCc1ccccc1-c1cccc(Cl)c1)C1CCNCC1
158 nM,74%,126 nM,O=C(Cc1ccccc1-c1cccc(Cl)c1)NC1CCNCC1
158 nM,77%,,Cc1ccc(C(=O)NCC2CCNCC2)c(-c2cccc(Cl)c2)c1
63.1 nM,87%,1260 nM,O=C(NCC1(F)CCNCC1)c1c(F)cccc1-c1cccc(Cl)c1
1000 nM,67%,,Cc1ccc(-c2cccc(Cl)c2)c(C(=O)NCC2CCNCC2)c1
15.8 nM,90%,,O=C(NCC1CCNCC1)c1c(F)cccc1-c1cccc(Cl)c1
> 10000 nM,24%,,O=C(NCC1CCNCC1)c1ccc(F)cc1-c1cccc(Cl)c1
1580 nM,51%,,CS(=O)(=O)N(Cc1c(F)cccc1-c1cccc(Cl)c1)CC1CCNCC1
100 nM,74%,,O=C(NCC1CCNCC1)c1cc(Cl)ccc1-c1cccc(Cl)c1
63.1 nM,109%,,O=C(NCC1CCNCC1)c1c(Cl)cccc1-c1cccc(Cl)c1
25.1 nM,80%,,O=C(NCC1CCNCC1)c1c(-c2cccc(Cl)c2)ccc(Cl)c1F
> 10000 nM,37%,,Cc1cccc(-c2cccc(Cl)c2)c1C(=O)NCC1CCNCC1
> 10000 nM,3%,,O=C(NCC1CCNCC1)c1ccncc1-c1cccc(Cl)c1
> 10000 nM,,,CN(C(=O)CC1CCNCC1)c1ccccc1-c1cccc(Cl)c1
> 10000 nM,,,O=S(=O)(NCC1CCNCC1)c1ccccc1-c1cccc(Cl)c1
> 10000 nM,,,Clc1cccc(-c2ccccc2COCC2CCNCC2)c1
> 10000 nM,,,Fc1cccc(-c2cccc(Cl)c2)c1-c1noc(CC2CCNCC2)n1
1 nM,100%,2 nM,OC(CCC1CCNCC1)c1ccccc1-c1cccc(Cl)c1 (configuration not stated)
> 10000 nM,20%,,O=C(NCC1CCNCC1)c1cnccc1-c1cccc(Cl)c1
> 10000 nM,34%,,Cc1cccc(C(=O)NCC2CCNCC2)c1-c1cccc(Cl)c1
> 10000 nM,,,O=C(OCC1CCNCC1)c1ccccc1-c1cccc(Cl)c1

# From ChEMBL document CHEMBL1158595, “2' biaryl amides as novel and subtype selective M1 agonists. Part II: Further optimization and profiling” (Bioorg Med Chem Lett, 2010)
